The text below walks through data of US11883492B2, “Combination treatment of chemoresistant cancers” (THE REGENTS OF THE UNIVERSITY OF CALIFORNIA, priority 2018, dated 2024).

SMILES strings stand for the structures.

One assay has as its system AKT, BMI1. Briefly: Wnt5a-induced AKT activation and BMI1 expression (immunoblot). Format: cell-based. The conditions noted are these: wt-Hs578T. The method, then:
FIGS. 8A-8B. The figures show Enhanced BMI1 Expression Induced By Wnt5a Is Dependent On Activation Of AKT. (FIG. 8A), BMI1 mRNA level in Hs578T cells treated with Wnt5a at 100 ng/ml at indicated time point were examined by quantitative PCR (qPCR). Data shown were the mean expression levels of BMI1 relative to time 0 samples in triplicate and normalized with respect to GAPDH. Error bars indicate SEM. (FIG. 8B), Hs578T cells were cultured in serum-free medium, pre-treated with or without MK-2206 for 3 hours, and then stimulated with or without Wnt5a at 100 ng/ml for 6 hours. BMI1, pAKT and AKT were examined on these samples via immunoblot analyses. Numbers below the row for AKT provide the ratios of band densities of pAKT to AKT that were normalized to that of samples treated for 0 minutes with Wnt5a. β-Actin served as protein-loading control. Numbers below the row for BMI1 provide the ratios of band densities of BMI1 to β-Actin, normalized with respect to that of samples treated for 0 minutes with Wnt5a.
Immunoblot analyses. Cells used for examination for proteins via immunoblot analysis were treated with control antibody or cirmtuzumab (50 μg/ml) for overnight and then were cultured in medium supplemented with or without recombinant Wnt5a (100 ng/ml). […] The protein concentration was determined using a bicinchoninic acid protein assay (Pierce). […]

The next assay concerns PDX4 or PDX5. Briefly: CSC features (ALDH1, spheroids, Matrigel invasion, re-engraftment) of PDX tumors from paclitaxel-treated mice. Type of assay: in vivo, Rag2−/−γc−/− mice. As for the experimental part:
(§1) Tumorigenicity Assay. Cells were suspended in Mammary-Epithelial Growth Medium (MEGM), mixed with Matrigel (BD Biosciences, San Diego, CA) at a 1:1 ratio, and then transplanted into the mammary pads of Rag2−/−γc−/− mice. We monitored the mice weekly for the development of tumors. We extirpated the tumor to examine the tumor cells for expression of ROR1 at 10 days after treatment with 13.4 mg/kg paclitaxel via intravenously injection for consecutive 5 days. To examine for metastases, we harvested the lungs of 6 mice from each treatment group at 42 or 48 days post-transplantation and fixed the tissue with 10%-formalin, prior to embedding in paraffin. Each paraffin block was cut into 200-μm sections. Tumor foci were scored in a blinded fashion by a board-certified pathologist. To test whether cirmtuzumab alone or in combination with paclitaxel impaired engraftment of primary breast tumor cells, 1×10^5 single cells isolated from PDX4 or PDX5 were injected into the mammary pads of 4- to 6-week-old Rag2−/−γc−/− mice. When tumor size reached 300 mm3, 13.4 mg/kg paclitaxel was injected intravenously for consecutive 5 days or/and 10 mg/kg of cirmtuzumab was injected intravenously at day 0, day 7 and then biweekly.
(§2) Flow cytometry analysis. […]

The subject of assay [1] is PDX5. Briefly: Tumorigenicity (re-engraftment) assay with tumor cells of PDX5 removed from treated mice. Format: in vivo, Rag2−/−γc−/− mice. Particulars: for Tumor incidence (mice with tumors/mice implanted): cells isolated from PDX5 of paclitaxel-treated mice (Table 6, FIG. 2E).
From the text: (§3) Patient-Derived xenografts. Four-to-eight-week-old female Rag2−/−γc−/− mice were used in this study following the care and use of laboratory animal guidelines of National Institutes of Health (NIH). The UC San Diego Medical Experimental Animal Care Committee approved the study protocol. The mice were housed in laminar-flow cabinets under specific pathogen-free conditions and fed ad libitum. The PDX were established using mechanically minced fresh breast cancer specimens. Early passage (P1-P5) of primary tumor tissues from these PDX models were mechanically minced, enzymatically and mechanically dissociated using GentleMACS Dissociator (Miltenyi Biotec), in accordance to the manufacturer's instruction. Erythrocytes were removed via density gradient centrifugation in Percoll™ Plus (GE Healthcare Life Sciences, CC-17-5442-01).
as §1

For assay [2], the system named is PDX4. Briefly: Proportion of ROR1+ cells in residual PDX4 tumors after paclitaxel (flow cytometry). The conditions noted are these: PDX4, mice treated with paclitaxel 13.4 mg/kg; untreated 4.5%±1.1%. Format: in vivo, Rag2−/−γc−/− mice. As for the experimental part: as §1, §2
The test system of the next assay is breast cancer PDX. Briefly: Capacity of PDX tumor cells from treated mice to form secondary PDX. Format: in vivo, Rag2−/−γc−/− mice. The conditions noted are these: cirmtuzumab 10 mg/kg, paclitaxel 13.4 mg/kg or both (FIG. 5C).
From the text: as §3
Tumorigenicity Assay. Cells were suspended in Mammary-Epithelial Growth Medium (MEGM), mixed with Matrigel (BD Biosciences, San Diego, CA) at a 1:1 ratio, and then transplanted into the mammary pads of Rag2−/−γc−/− mice. We monitored the mice weekly for the development of tumors. We extirpated the tumor to examine the tumor cells for expression of ROR1 at 10 days after treatment with 13.4 mg/kg paclitaxel via intravenously injection for consecutive 5 days. […] Tumor foci were scored in a blinded fashion by a board-certified pathologist. […]

Assay [3] relates to breast cancer PDX (PDX4, PDX5). Briefly: Tumor growth of breast-cancer PDX in mice. Format: in vivo, Rag2−/−γc−/− mice.
From the text: as §3
as §1, with “When tumor size reached 300 mm3, 13.4 mg/kg paclitaxel was injected intravenously for consecutive 5 days or/and 10 mg/kg of cirmtuzumab was injected intravenously at day 0, day 7 and then biweekly.” left out
Control groups were injected with hIgG instead of cirmtuzumab. The tumor volume (v) was determined using the formula v=(length)×(width)2×0.4.

Assay [4] has as its system PDX4. Briefly: Tumorigenicity (re-engraftment) assay with tumor cells of PDX4 removed from treated mice. Format: in vivo, Rag2−/−γc−/− mice. Particulars: for Tumor incidence (mice with tumors/mice implanted): cells isolated from PDX4 of paclitaxel-treated mice (Table 6, FIG. 2E).
From the text: as §3, §1

The subject of assay [5] is PDX5. Briefly: Proportion of ROR1+ cells in residual PDX5 tumors after paclitaxel (flow cytometry). Format: in vivo, Rag2−/−γc−/− mice. The conditions noted are these: PDX5, mice treated with paclitaxel 13.4 mg/kg; untreated 8.5%±5.8%. The method, then: as §1, §2
Another assay has as its system tumor cells from PDX4. Briefly: Cytotoxicity of paclitaxel on PDX tumor cells in vitro after cirmtuzumab or hIgG. Type of assay: cell-based. The conditions noted are these: Homo sapiens. As for the experimental part: FIG. 10. […] Single cell suspension of PDX4 or PDX5 samples were treated with cirmtuzumab or control antibody with or without increasing concentration of paclitaxel for 24 hours. Data are shown as the mean (±SEM) percentage of viable cells of triplicated samples from each of the treatments as determined by flow cytometry analysis. An asterisk indicates P<0.05 and ** indicates P<0.01 as determined by Student's t-Test.
We treated equivalent numbers of tumor cells from PDX4 or PDX5 with cirmtuzumab or control hIgG at 50 μg/ml overnight and then cultured the cells in separate wells in triplicate with increasing concentrations of paclitaxel.

In the case of `NC1(c2ccc(-c3nc4ccn5c(=O)[nH]nc5c4cc3-c3ccccc3)cc2)CCC1` [MK-2206], in the assay on AKT, BMI1, the “Wnt5a-enhanced expression of BMI1” value is recorded as “inhibited the capacity of Wnt5a to enhance expression of BMI1” and the “Wnt5a-induced activation of AKT” value is listed as “impaired the capacity of Wnt5a to induce activation of AKT”.

For the compound `CC(=O)O[C@H]1C(=O)[C@@]2(C)[C@H]([C@H](OC(=O)c3ccccc3)[C@]3(O)C[C@H](OC(=O)[C@H](O)[C@@H](NC(=O)c4ccccc4)c4ccccc4)C(C)=C1C3(C)C)[C@]1(OC(C)=O)CO[C@@H]1C[C@@H]2O` [paclitaxel], in the assay with PDX4 or PDX5 (versus matched tumors of untreated mice or the original PDX (FIG. 2C-2E)), the “Cells able to form spheroids, invade Matrigel or re-engraft in tumors of treated mice” value is reported as “enriched for cells that could form spheroids, invade Matrigel, or re-engraft”. Moreover, the “Proportion of ALDH1-expressing cells in tumors of treated mice” value with PDX4 or PDX5 (versus matched tumors of untreated mice or the original PDX (FIG. 7J)) is reported as “higher proportions of ALDH1-expressing cells”. The “Mice that developed PDX/mice engrafted” value was 3/3 in the assay with PDX5 [1] (1 × 10^4 cells from PDX5 that relapsed after therapy (Table 8, FIG. 5C)); 4/5 in the assay with PDX5 [1] (1 × 10^5 cells from PDX5 that relapsed after therapy (Table 8, FIG. 5C)); 5/5 in the assay with PDX4 [4] (1 × 10^4 cells from PDX4 that relapsed after therapy (Table 8, FIG. 5C)); 5/5 with PDX4 [4] (1 × 10^5 cells from PDX4 that relapsed after therapy (Table 8, FIG. 5C)). The “Tumor incidence (mice with tumors/mice implanted)” value in the assay with PDX5 [1] (10^3 cells re-implanted) is on record as 4/5; with PDX5 [1] (10^4 cells re-implanted), 5/5; with PDX4 [4] (10^3 cells re-implanted), 4/5; in the assay with PDX4 [4] (10^4 cells re-implanted), 5/5. For the same compound, the “Frequency of Tumorigenic Cell” value with PDX5 [1] (PDX5 from paclitaxel-treated mice, ELDA software (Table 6)) is given as 1/622; with PDX4 [4] (PDX4 from paclitaxel-treated mice, ELDA software (Table 6)), 1/622. Besides, the results for the “Proportion of ROR1+ cells in residual tumors” value in the assay with PDX4 [2] and with PDX5 [5] were 61.7%±7.0% and 56.4%±6.4%, respectively. The “Capacity of tumor cells of PDX that relapsed after therapy to re-engraft immune-deficient mice” value in the assay on breast cancer PDX was “readily developed secondary PDX”. Besides, the “Tumor response of secondary PDX” value in assay [3] (13.4 mg/kg for five consecutive days when PDX reached 300 mm^3 (FIG. 2A)) is “tumor regression”. In addition, the “Tumor growth / tumor volumes in PDX4- or PDX5-bearing mice” value in [3] (cirmtuzumab 10 mg/kg, paclitaxel 13.4 mg/kg or the combination (FIG. 5A)) was “inhibited tumor growth relative to that of control-treated animals”. In addition, in [3] (tumors derived from PDX with high proportions of ROR1+ cells (e.g. PDX4 or PDX5), 13.4 mg/kg for five days), the “Tumor regrowth after therapy” value was “re-grew shortly after therapy”. Besides, the IC50 in the assay with tumor cells from PDX4 (with cirmtuzumab 50 μg/ml overnight (FIG. 10)) came to 1 ± 1 µM; in the assay on tumor cells from PDX4 (with non-specific hIgG 50 μg/ml overnight (FIG. 10)) it was 23 ± 1 µM.
